Assay results published in patent US11865086B2, “Cinnamaldehyde derivative compounds and methods of use for cinnamaldehyde derivative compounds nicotine cessation” (Pacific University, priority 2018, dated 2024).
Entries after “also recorded” stand apart in the source; their conditions may differ.

Legend:
CYP2A6 [1] = target: T1, CYP2A6 (Homo sapiens, UniProt P11509); assay: biochemical
T1 sequence (P11509 1-494): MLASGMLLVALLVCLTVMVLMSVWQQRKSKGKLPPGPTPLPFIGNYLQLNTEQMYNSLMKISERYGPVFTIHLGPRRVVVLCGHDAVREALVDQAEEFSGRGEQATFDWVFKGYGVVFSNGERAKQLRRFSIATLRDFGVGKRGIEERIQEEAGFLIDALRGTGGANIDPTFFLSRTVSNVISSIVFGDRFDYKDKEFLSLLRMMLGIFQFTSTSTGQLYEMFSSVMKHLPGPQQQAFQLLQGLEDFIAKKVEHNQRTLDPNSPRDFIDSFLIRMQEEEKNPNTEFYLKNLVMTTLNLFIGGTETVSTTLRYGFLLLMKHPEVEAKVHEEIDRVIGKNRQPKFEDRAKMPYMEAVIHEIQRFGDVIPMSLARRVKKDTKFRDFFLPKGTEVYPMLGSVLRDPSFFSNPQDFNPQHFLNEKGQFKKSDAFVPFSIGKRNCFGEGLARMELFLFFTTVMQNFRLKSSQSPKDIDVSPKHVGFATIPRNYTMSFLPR
Description: (§1) A 96-well plate assay and fluorescence spectroscopy may be used to quantify the product, 7-hydroxycoumarin.
Data was fit using GraphPad Prism.

CYP2A6 [2] = target: T1, CYP2A6; assay: Time-dependent inhibition screen, recombinant CYP2A6 system, coumarin hydroxylase readout; details: for kinact / kinact/kI: Table 5; for Fold difference (with respect to CA): kinact/kI relative to t-CA; for time-dependent inhibition of CYP2A6, result in words: with NADPH, 7-hydroxycoumarin formation
Description: (§2) Since this type of inhibition also requires that the inhibitor is initially metabolized by the target enzyme, MBIs may be identified by evaluating the inhibition in the presence and absence of cofactors that are required for activity, such as NADPH for CYPs.

[3] = target: T2, CYP2A6-mediated nicotine metabolism (Homo sapiens, UniProt P11509); assay: Model (Equation 2) predicting change in nicotine AUC from mechanism-based inhibition parameters; details: Table 5, predicted nicotine AUC
T2 sequence (P11509 1-494): T1 sequence (P11509 1-494)

CYP2A6 [4] = target: T1, CYP2A6; assay: biochemical; remark: listed apart in the source
Description: as §2

CYP2A6 [5] = target: T1, CYP2A6; assay: in vitro
Description: as §2

CYP2A6 [6] = target: T3, CYP2A6 (Homo sapiens, UniProt P11509, K28S/Q25K/Q26K/R27T/W24A); assay: biochemical
T3 sequence (P11509 with tags, fused parts or gaps limits assumed): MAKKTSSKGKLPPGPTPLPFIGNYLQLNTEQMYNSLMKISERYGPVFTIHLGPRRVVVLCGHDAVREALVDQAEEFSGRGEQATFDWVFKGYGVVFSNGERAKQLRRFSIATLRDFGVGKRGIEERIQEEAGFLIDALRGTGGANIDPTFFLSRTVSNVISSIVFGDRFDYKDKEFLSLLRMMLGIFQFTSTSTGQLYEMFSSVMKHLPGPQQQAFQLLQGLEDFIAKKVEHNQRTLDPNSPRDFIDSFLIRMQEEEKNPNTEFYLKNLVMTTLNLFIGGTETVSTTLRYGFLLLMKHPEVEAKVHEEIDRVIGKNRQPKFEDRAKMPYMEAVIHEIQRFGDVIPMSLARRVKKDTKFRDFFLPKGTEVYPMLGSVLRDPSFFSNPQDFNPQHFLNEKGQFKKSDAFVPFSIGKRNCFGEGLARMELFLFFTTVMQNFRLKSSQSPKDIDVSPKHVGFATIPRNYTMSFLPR
Protocol: (§3) Spectral binding studies were conducted using purified heterologously expressed CYP2A6 in Escherichia coli. […] Absorbance changes (A386-A418) may be plotted against added ligand concentrations in order to determine dissociation constants.
(§4) In more detail, the CYP2A6 enzyme may be heterologously expressed in Escherichia coli and purified. The expression vector, pKK2A6dH may be used to express the enzyme. The vector contains a cDNA sequence that codes for human CYP2A6 with a deletion of the N-terminal transmembrane sequence, an alteration of several residues at the modified N-terminus to increase expression, and four histidine residues added at the C-terminus to aid in purification. […] Expression from the vector may be induced with the addition of IPTG to bacterial cultures. δ-Aminolevulinic acid is added during expression to supplement heme biosynthesis. The enzyme may be purified following previously reported protocols. Briefly, following cell disruption, the solubilized enzyme may be purified using Ni^2+-affinity chromatography and cation-exchange (CM sepharose) chromatography, which may lead to protein of high purity and P450 content.

CYP2A6 [7] = target: T1, CYP2A6; assay: IC50 for inhibition of CYP2A6, coumarin hydroxylase activity (7-hydroxycoumarin fluorescence); details: Table 1B, structural analogs of CA
Description: as §1
Data was fit using GraphPad Prism.

[8] = obtained from PubChem and ChemSpider; cited from earlier work
CYP2A6 [9] = target: T3, CYP2A6; assay: Spectral ligand binding (KS) to purified CYP2A6 expressed in Escherichia coli; details: read-out: Ks
Protocol: as §3, §4

[10] = recombinant CYP2A6, probe coumarin

| SMILES | IC50 (CYP2A6 [1]) [µM] | Fold difference (with respect to CA) (CYP2A6 [2]) | time-dependent inhibition of CYP2A6, result in words (CYP2A6 [2]) | Ki (CYP2A6 [4]) [µM] | Kd (CYP2A6 [6]) [µM] | further results |
| --- | --- | --- | --- | --- | --- | --- |
| N#CC=Cc1ccccc1 [cinnamonitrile] | 8.8 | – | – | – | – | – |
| O=CCCc1ccccc1 [hydro-CA, hydrocinnamaldehyde] | 48.3 | 0.96 | not to be time-dependent inhibitors | 85 | 44.8 | kinact (CYP2A6 [2]): .116 min⁻¹; kinact/kI (CYP2A6 [2]): 0.001365; AUC fold increase [3]: 1.71-2.67; kinact (CYP2A6 [5]; recombinant enzyme): 0.00193 s⁻¹; kinact/KI (CYP2A6 [5]; recombinant enzyme): 22.7 M⁻¹ s⁻¹ |
| COc1ccccc1C=CC=O [o-methoxycinnamaldehyde, 2-methoxycinnamaldehyde] | – | – | – | – | 1.6 | – |
| CC(C=O)=Cc1ccccc1[N+](=O)[O-] [o-nitro-α-methyl-CA, 2-nitro-α-methylcinnamaldehyde] | – | 8.7 | more potent inhibitors than t-CA | 19.6 | – | kinact (CYP2A6 [5]; [10]): 0.00405 s⁻¹; kinact/KI (CYP2A6 [5]; [10]): 207 M⁻¹ s⁻¹ |
| O=CC=Cc1ccccc1C(F)(F)F [o-trifluoromethyl-CA, 2-trifluoromethylcinnamaldehyde] | – | 1.9 | more potent inhibitors than t-CA | 52.6 | – | kinact (CYP2A6 [5]; [10]): 0.00237 s⁻¹; kinact/KI (CYP2A6 [5]; [10]): 45 M⁻¹ s⁻¹ |
| CCCCC/C(C=O)=C/c1ccccc1 [α-amyl-CA] | – | – | not to be time-dependent inhibitors | – | – | IC50 (CYP2A6 [7]): 65 µM |
| O=C/C(Br)=C/c1ccccc1 [α-bromo-CA, α-bromocinnamaldehyde] | 2.8 | 0.32 | less potency as compared to t-CA | 36.3 | 8.2 | kinact (CYP2A6 [2]): .017 min⁻¹; kinact/kI (CYP2A6 [2]): 0.000463; AUC fold increase [3]: 1.35-1.84; kinact (CYP2A6 [5]; [10]): 0.000283 s⁻¹; kinact/KI (CYP2A6 [5]; [10]): 7.83 M⁻¹ s⁻¹; Log P [8]: 2.7 |
| CCCCC(C=O)=Cc1ccccc1 [α-butyl-CA] | – | – | not to be time-dependent inhibitors | – | – | Kd (CYP2A6 [9]): 36.8 µM |
| O=CC(Cl)=Cc1ccccc1 [α-chloro-CA, α-chlorocinnamaldehyde] | 3.3 | 30.7 | substantially more potent time-dependent inhibitor of CYP2A6 than t-CA; also recorded: more potent inhibitors than t-CA | 3.4 | 9.6 | kinact (CYP2A6 [2]): .15 min⁻¹; kinact/kI (CYP2A6 [2]): 0.04399; Fold difference (with respect to CA) (CYP2A6 [2]; listed as α-chloro-cinnamaldehyde): over 30; AUC fold increase [3]: 2.44-4.22; kinact (CYP2A6 [5]; [10]): 0.0025 s⁻¹; kinact/KI (CYP2A6 [5]; [10]): 733 M⁻¹ s⁻¹ |
| CCC(C=O)=Cc1ccccc1 [α-ethyl-CA] | – | – | not to be time-dependent inhibitors | – | – | Kd (CYP2A6 [9]): 3 µM |
| O=CC(F)=Cc1ccccc1 [α-fluoro-CA] | – | – | not to be time-dependent inhibitors | – | – | – |
| CCCCCC/C(C=O)=C\c1ccccc1 [α-hexyl-CA] | – | – | not to be time-dependent inhibitors | – | – | IC50 (CYP2A6 [7]): 64.7 µM |
| CC(C)C(C=O)=Cc1ccccc1 [α-isopropyl-CA] | – | – | not to be time-dependent inhibitors | – | – | Kd (CYP2A6 [9]): 3.2 µM |
| CC(C=O)=Cc1ccccc1 [α-methyl-CA, α-methyl-cinnamaldehyde] | 5.3 | – | not to be time-dependent inhibitors | – | 6.8 | time-dependent inhibition of CYP2A6, result in words (CYP2A6 [2]; listed as α-methyl-cinnamaldehyde): not be a time-dependent inhibitor of CYP2A6 |
| CCCC(C=O)=Cc1ccccc1 [α-propyl-CA] | – | – | not to be time-dependent inhibitors | – | – | Kd (CYP2A6 [9]): 7.8 µM |
| O=CC=C(c1ccccc1)c1ccccc1 [β-phenyl CA] | – | – | – | – | – | IC50 (CYP2A6 [7]): 148 µM |
